From patent US12077503B2, “Substituted cyclic amides and their use as herbicides” (FMC CORPORATION, priority 2015, dated 2024) come the findings set out here.

Like-named read-outs stand apart in the source and are kept apart here.

Type in all cases: in vivo
The test system of one assay is Kochia (Kochia scoparia). Put plainly: Test A preemergence. Particulars: Bassia scoparia, pre-emergence, 240 h; for pest or weed control at 125 g/ha: 125 g ai/ha; for pest or weed control at 500 g/ha: 500 g ai/ha. In short, it runs like this: (§1)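 Treatment is preemergence as a directed soil spray after planting, or postemergence at the one- to two-leaf stage, with test chemical in a non-phytotoxic solvent mixture plus surfactant. Plants stay in the greenhouse about 10 d before visual injury scoring on a 0 to 100 scale versus untreated controls.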

The subject of assay [1] is barnyardgrass (Echinochloa crus-galli). In words: Test A preemergence. Conditions: Echinochloa crus-galli, pre-emergence, 240 h; for pest or weed control at 125 g/ha: 125 g ai/ha; for pest or weed control at 500 g/ha: 500 g ai/ha. The procedure, abridged: as §1
Assay [2] concerns giant foxtail (Setaria faberii). Put plainly: Test A preemergence. Particulars: Setaria faberi, pre-emergence, 240 h; for pest or weed control at 125 g/ha: 125 g ai/ha; for pest or weed control at 500 g/ha: 500 g ai/ha. The procedure, abridged:
as §1

For assay [3], the system named is pigweed (Amaranthus retroflexus). Put plainly: Test A preemergence. Particulars: Amaranthus retroflexus, pre-emergence, 240 h; for pest or weed control at 125 g/ha: 125 g ai/ha; for pest or weed control at 500 g/ha: 500 g ai/ha.
Assay [4] relates to ragweed (common ragweed, Ambrosia elatior). In words: Test A preemergence. Conditions: Ambrosia artemisiifolia, pre-emergence, 240 h; for pest or weed control at 125 g/ha: 125 g ai/ha; for pest or weed control at 500 g/ha: 500 g ai/ha. The procedure, abridged: as §1
Assay [5] has as its system ryegrass, Italian (Italian ryegrass, Lolium multiflorum). In words: Test A preemergence. Particulars: Lolium multiflorum, pre-emergence, 240 h; for pest or weed control at 125 g/ha: 125 g ai/ha; for pest or weed control at 500 g/ha: 500 g ai/ha. In short, it runs like this:
as §1

Assay [6] concerns Galium (catchweed bedstraw, Galium aparine). In words: Test A postemergence. Particulars: Galium, post-emergence, 240 h, postemergence; for pest or weed control at 125 g/ha: 125 g ai/ha, visual injury on 0 to 100 scale (0 no effect, 100 complete control); for pest or weed control at 500 g/ha: 500 g ai/ha. In short, it runs like this:
as §1

Assay [7] has as its system barnyardgrass (Echinochloa crus-galli). In words: Test A postemergence. Conditions: Echinochloa crus-galli, post-emergence, 240 h, postemergence; for pest or weed control at 125 g/ha: 125 g ai/ha, visual injury on 0 to 100 scale (0 no effect, 100 complete control); for pest or weed control at 500 g/ha: 500 g ai/ha. The procedure, abridged:
as §1

The subject of a further assay is corn (Zea mays). In words: Test A postemergence. Particulars: Zea mays, post-emergence, 240 h, postemergence; for plant injury at 125 g/ha: 125 g ai/ha, visual injury on 0 to 100 scale (0 no effect, 100 complete control). The procedure, abridged:
as §1

The test system of assay [8] is ragweed (common ragweed, Ambrosia elatior). Put plainly: Test A postemergence. Particulars: Ambrosia artemisiifolia, post-emergence, 240 h, postemergence, read-out: Ragweed plant response rating; for pest or weed control at 125 g/ha: 125 g ai/ha, visual injury on 0 to 100 scale (0 no effect, 100 complete control), approx. 10 d. In short, it runs like this:
as §1

In assay [9] the test system is barnyardgrass (Echinochloa crus-galli). Put plainly: Test B flooded paddy test. Particulars: Echinochloa crus-galli, 250 g ai/ha, Flood; 0 to 100 scale where 0 is no effect and 100 is complete control; read-out: Barnyardgrass plant response rating. In short, it runs like this: (§2)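 Compound goes directly into floodwater once pots are flooded 3 cm above soil, targeting plants at two leaves; the water depth is then held for the test duration. Plants sit 13–15 d in a greenhouse and are rated visually, 100 denoting complete control.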

Assay [10] concerns ducksalad (Heteranthera limosa). In words: Test B flooded paddy test. Particulars: Heteranthera limosa, 250 g ai/ha, Flood; 0 to 100 scale where 0 is no effect and 100 is complete control; read-out: Ducksalad plant response rating. In short, it runs like this:
as §2

Another assay concerns rice (Oryra sativa). In words: Test B flooded paddy test. Conditions: Oryza sativa, 250 g ai/ha, Flood; 0 to 100 scale where 0 is no effect and 100 is complete control; read-out: Rice plant response rating. In short, it runs like this: as §2
The subject of assay [11] is sedge, umbrella (small-flower umbrella sedge, Cyperus difformis). Put plainly: Test B flooded paddy test. Particulars: Cyperus difformis, 250 g ai/ha, Flood; 0 to 100 scale where 0 is no effect and 100 is complete control; read-out: Sedge, Umbrella plant response rating. In short, it runs like this:
as §2

Setting [12] is: approx. 10 d, read-out: Galium plant response rating.
[13] abbreviates: approx. 10 d, read-out: Barnyardgrass plant response rating.
Setting [14] is: approx. 10 d, read-out: Corn plant response rating.

For `O=C1NC[C@H](c2ccc3c(c2)CCC3)[C@H]1C(=O)Nc1cccc(F)c1F` [Compound 1046], the pest or weed control at 125 g/ha in the assay on Kochia (Kochia scoparia) (Preemergence, visual injury rating after approximately 10 d, read-out: Kochia plant response rating (0 to 100 scale, 0 is no effect, 100 is complete control)) came to 60%; in assay [1] (Preemergence, visual injury rating after approximately 10 d, read-out: Barnyardgrass plant response rating (0 to 100 scale, 0 is no effect, 100 is complete control)), 90%; in [2] (Preemergence, visual injury rating after approximately 10 d, read-out: Foxtail, Giant plant response rating (0 to 100 scale, 0 is no effect, 100 is complete control)) it was 80%; in [3] (Preemergence, visual injury rating after approximately 10 d, read-out: Pigweed plant response rating (0 to 100 scale, 0 is no effect, 100 is complete control)), 0%; in assay [4] (Preemergence, visual injury rating after approximately 10 d, read-out: Ragweed plant response rating (0 to 100 scale, 0 is no effect, 100 is complete control)), 40%; in assay [5] (Preemergence, visual injury rating after approximately 10 d, read-out: Ryegrass, Italian plant response rating (0 to 100 scale, 0 is no effect, 100 is complete control)), 60%. Moreover, the pest or weed control at 125 g/ha in assay [6] (setting [12]) came out at 50%; in assay [7] (setting [13]), 90%; in [8], 0%. Besides, the pest or weed control at 500 g/ha with Kochia (Kochia scoparia) (preemergence, visual injury rating about 10 d after treatment, 0 to 100 scale (0 no effect, 100 complete control), read-out: Kochia plant response rating) was found to be 70%; in [1] (preemergence, visual injury rating about 10 d after treatment, 0 to 100 scale (0 no effect, 100 complete control), read-out: Barnyardgrass plant response rating), 90%; in assay [2] (preemergence, visual injury rating about 10 d after treatment, 0 to 100 scale (0 no effect, 100 complete control), read-out: Foxtail, Giant plant response rating) it was 90%; in [3] (preemergence, visual injury rating about 10 d after treatment, 0 to 100 scale (0 no effect, 100 complete control), read-out: Pigweed plant response rating), 0%; in assay [4] (preemergence, visual injury rating about 10 d after treatment, 0 to 100 scale (0 no effect, 100 complete control), read-out: Ragweed plant response rating), 70%; in assay [5] (preemergence, visual injury rating about 10 d after treatment, 0 to 100 scale (0 no effect, 100 complete control), read-out: Ryegrass, Italian plant response rating), 60%. The pest or weed control at 500 g/ha turned out to be 50% in assay [6] (visual injury, 0 to 100 scale (0 no effect, 100 complete control), approx. 10 d, read-out: Plant response rating, Galium) and 90% in assay [7] (visual injury, 0 to 100 scale (0 no effect, 100 complete control), approx. 10 d, read-out: Plant response rating, Barnyardgrass). The plant injury at 125 g/ha with corn (Zea mays) (setting [14]) was found to be 20%. This compound registered a Corn plant response rating (crop injury, 0 = no effect, 100 = complete kill) at 500 g/ha in the assay with corn (Zea mays) (500 g ai/ha, visual injury, 0 to 100 scale (0 no effect, 100 complete control), approx. 10 d) of 60%. The pest or weed control at 250 g/ha in [9] is 60%; in [10], 100%; in the assay on rice (Oryra sativa), 0%; in [11], 0%.

Regarding `CN1C[C@H](c2ccc3c(c2)OCO3)[C@@H](C(=O)Nc2cccc(F)c2F)C1=O` [Compound 1126], the pest or weed control at 125 g/ha with Kochia (Kochia scoparia) (preemergence, 0 to 100 scale where 0 is no effect and 100 is complete control, approx. 10 d, read-out: Kochia plant response rating) is 70%; in assay [1] (preemergence, 0 to 100 scale where 0 is no effect and 100 is complete control, approx. 10 d, read-out: Barnyardgrass plant response rating) it was 90%; in [2] (preemergence, 0 to 100 scale where 0 is no effect and 100 is complete control, approx. 10 d, read-out: Foxtail, Giant plant response rating), 90%; in assay [3] (preemergence, 0 to 100 scale where 0 is no effect and 100 is complete control, approx. 10 d, read-out: Pigweed plant response rating), 30%; in [4] (preemergence, 0 to 100 scale where 0 is no effect and 100 is complete control, approx. 10 d, read-out: Ragweed plant response rating), 60%; in assay [5] (preemergence, 0 to 100 scale where 0 is no effect and 100 is complete control, approx. 10 d, read-out: Ryegrass, Italian plant response rating), 0%. Moreover, the pest or weed control at 125 g/ha in [6] (setting [12]) stood at 50%; in assay [7] (setting [13]), 90%; in assay [8], 40%. In addition, the pest or weed control at 500 g/ha with Kochia (Kochia scoparia) (preemergence, 0 to 100 scale where 0 is no effect and 100 is complete control, read-out: Kochia plant response rating) worked out at 80%; in assay [1] (preemergence, 0 to 100 scale where 0 is no effect and 100 is complete control, read-out: Barnyardgrass plant response rating), 90%; in assay [2] (preemergence, 0 to 100 scale where 0 is no effect and 100 is complete control, read-out: Foxtail, Giant plant response rating), 90%; in [3] (preemergence, 0 to 100 scale where 0 is no effect and 100 is complete control, read-out: Pigweed plant response rating), 60%; in [4] (preemergence, 0 to 100 scale where 0 is no effect and 100 is complete control, read-out: Ragweed plant response rating), 50%; in assay [5] (preemergence, 0 to 100 scale where 0 is no effect and 100 is complete control, read-out: Ryegrass, Italian plant response rating), 70%. In addition, the pest or weed control at 500 g/ha in assay [6] (0 to 100 scale, 0 is no effect, 100 is complete control, read-out: Galium plant response rating) came to 40%; in assay [7] (0 to 100 scale, 0 is no effect, 100 is complete control, read-out: Barnyardgrass plant response rating), 90%; in [8] (500 g ai/ha, 0 to 100 scale, 0 is no effect, 100 is complete control), 40%. Also, the plant injury at 125 g/ha in the assay on corn (Zea mays) (setting [14]) came out at 60%. The plant injury at 500 g/ha with corn (Zea mays) (500 g ai/ha, 0 to 100 scale, 0 is no effect, 100 is complete control, read-out: Corn plant response rating) stood at 90%. Further, the pest or weed control at 250 g/ha turned out to be 75% in [9], 100% in [10], 0% with rice (Oryra sativa) and 0% in assay [11].
